From publication PMC8776894 (Communications Biology, 2022)
“And” between values parts separate entries of the source, which are not always exact repeats. Equal entries are not always repeated.

Legend:
[1] = tested on: 17 phosphorylation sites, prefrontal cortex lysate; assay: Phospho antibody microarray; type: in vivo, mouse
Experimental: Protein phosphorylation detection was performed with a Phospho Explorer Antibody Array (Catalog number AAM-APOSIG-1-8, Ray Biotech, USA), allowing for the examination of 17 phosphorylation sites (three replicates per antibody). Whole-cell lysates from the prefrontal cortex in mice after MCAO/R and VK-treated, and the assay was performed according to the manufacturer’s protocol.

[2] = tested on: platelet aggregation in platelet rich plasma; assay: Platelet aggregation function test; type: cell-based; details: VK 0.0091–0.294 µM; rabbit PRP, ADP 6.07 µmol/L, 5 min maximum aggregation rate
Experimental: Platelet aggregation function test. Venous blood from (normal healthy rabbits) was collected in 3 mL sodium citrate anticoagulation vacuum plastic tubes. The collected venous blood was centrifuged for 10 min at 100 × g at 4℃ to obtain the upper plasma, and the platelet rich plasma (PRP) was prepared, centrifuged again for 10 min at 2000 × g at 4°C to draw the upper plasma, the platelet poor plasma (PPP) was prepared and […] to a platelet concentration of 3×10^8 cells/ml was counted. The adjusted PRP was placed into a four-channel platelet aggregation instrument (Agg RAM, Helena Laboratories, USA) to determine the 5 min maximum platelet aggregation rate with adenosine diphosphate (ADP), arachidonic acid (AA), thrombin, collagen (COL) , and platelet-activating factor (PAF) or saline as inducers (at a final […]
Acute toxicity test. Systemic acute toxicity test by peritoneal injection was performed according to the guideline provided by Center for Drug Evaluation and Research. In addition to the normal group, male mice were randomly divided into the treated groups received a single dose of 1.5 mg/kg, 6 mg/kg, 24 mg/kg, 96 mg/kg and 384 body weight of VK. […]
The obtained plasma was analyzed using an automatic coagulation apparatus (CA1500).

[3] = tested on: HT22 cells (OGD/R); assay: Annexin V-FITC/propidium iodide apoptosis; type: cell-based, mouse; details: Annexin V-FITC/PI flow cytometry
[4] = tested on: BV2 microglia cells; assay: CCK-8 cytotoxicity in BV2 cells; details: CCK8 assay
[5] = tested on: MCAO/R mice; assay: Grip test; type: in vivo, mouse; parameters: grip test (Fig.2g): unit not given here; details: for grip test (Fig.2g): individual animals
Experimental: The grip strength (The Chatillon® DFE Digital Force Gauge DFX-050) was used to evaluate the effects of VK on muscular incoordination of mice. The forelimbs of the mice were placed on the test grid and the mice were gently pulled after the animals were grasped and the force value when the claws of the animals were recorded was the grip value. The test was performed at 24 and 48 h after MCAO/R.

[6] = Group2(VK 150) VS Group1(VK 300)
[7] = Group2(VK 150) VS Group3(Sham), AveExp.Group3 minus AveExp.Group2
[8] = Group4(Vehicle) VS Group1(VK 300)
[9] = Group4(Vehicle) VS Group2(VK 150)
[10] = Vehicle vs VK headed 150 mg/kg, Regulation up
[11] = Vehicle vs VK headed 300mg/kg, Regulation up

Gly-Arg-Pro-Hyp-Gly-Phe-Ser-Pro-Phe-Arg-Ile-Asp [VK, Vespakinin-M]
AKT(S473) logFC [1, 6]: 0.1681
ATM(S1981) logFC [1, 6]: 0.4433
BAD(S112) logFC [1, 6]: 0.1628
CHK1 (S296) logFC [1, 6]: 0.118
Casp3(D175) logFC [1, 6]: 0.2616
Casp7(D198) logFC [1, 6]: 0.356
Erk1/2(T202) logFC [1, 6]: 0.2636
IkBa (S32) logFC [1, 6]: -0.1062
JNK(T183) logFC [1, 6]: 0.1152
NFKB(S536) logFC [1, 6]: 0.07606
P27(T198) logFC [1, 6]: -0.02206
P38(T180/Y182) logFC [1, 6]: 0.08158
P53(S15) logFC [1, 6]: -0.02082
SMAD2(S245) logFC [1, 6]: 0.2566
TAK1(S412) logFC [1, 6]: 0.04657
eIF2a (S51) logFC [1, 6]: 0.3172
hsp27(S82) logFC [1, 6]: 0.2446
AKT(S473) logFC [1, 7]: 0.1633
ATM(S1981) logFC [1, 7]: 0.1496
BAD(S112) logFC [1, 7]: 0.121
CHK1 (S296) logFC [1, 7]: 0.2057
Casp3(D175) logFC [1, 7]: 0.09625
Casp7(D198) logFC [1, 7]: 0.03142
Erk1/2(T202) logFC [1, 7]: 0.1043
IkBa (S32) logFC [1, 7]: 0.1056
JNK(T183) logFC [1, 7]: 0.02185
NFKB(S536) logFC [1, 7]: -0.02812
P27(T198) logFC [1, 7]: 0.08521
P38(T180/Y182) logFC [1, 7]: -0.03282
P53(S15) logFC [1, 7]: 0.03719
SMAD2(S245) logFC [1, 7]: 0.04639
TAK1(S412) logFC [1, 7]: 0.09444
eIF2a (S51) logFC [1, 7]: 0.1069
hsp27(S82) logFC [1, 7]: 0.06748
AKT(S473) logFC ([1]; Group3(Sham) VS Group1(VK 300)): 0.3314
ATM(S1981) logFC ([1]; Group3(Sham) VS Group1(VK 300)): 0.5929
BAD(S112) logFC ([1]; Group3(Sham) VS Group1(VK 300)): 0.2838
CHK1 (S296) logFC ([1]; Group3(Sham) VS Group1(VK 300)): 0.3237
Casp3(D175) logFC ([1]; Group3(Sham) VS Group1(VK 300)): 0.3578
Casp7(D198) logFC ([1]; Group3(Sham) VS Group1(VK 300)): 0.3874
Erk1/2(T202) logFC ([1]; Group3(Sham) VS Group1(VK 300)): 0.3679
IkBa (S32) logFC ([1]; Group3(Sham) VS Group1(VK 300)): -0.0006282
JNK(T183) logFC ([1]; Group3(Sham) VS Group1(VK 300)): 0.137
NFKB(S536) logFC ([1]; Group3(Sham) VS Group1(VK 300)): 0.04795
P27(T198) logFC ([1]; Group3(Sham) VS Group1(VK 300)): 0.06315
P38(T180/Y182) logFC ([1]; Group3(Sham) VS Group1(VK 300)): 0.04876
P53(S15) logFC ([1]; Group3(Sham) VS Group1(VK 300)): 0.01637
SMAD2(S245) logFC ([1]; Group3(Sham) VS Group1(VK 300)): 0.303
TAK1(S412) logFC ([1]; Group3(Sham) VS Group1(VK 300)): 0.141
eIF2a (S51) logFC ([1]; Group3(Sham) VS Group1(VK 300)): 0.4241
hsp27(S82) logFC ([1]; Group3(Sham) VS Group1(VK 300)): 0.3121
CHK1 (S296) logFC [1, 8]: 0.6052
Casp7(D198) logFC [1, 8]: 0.6994
Erk1/2(T202) logFC [1, 8]: 0.4686
IkBa (S32) logFC [1, 8]: 0.671
JNK(T183) logFC [1, 8]: 0.4121
NFKB(S536) logFC [1, 8]: 0.4222
P38(T180/Y182) logFC [1, 8]: 0.4307
hsp27(S82) logFC [1, 8]: 0.386
logFC AKT(S473) [1, 8]: 0.1073
logFC ATM(S1981) [1, 8]: 0.3928
logFC BAD(S112) [1, 8]: 0.3454
logFC Casp3(D175) [1, 8]: 0.3417
logFC P27(T198) [1, 8]: 0.1337
logFC P53(S15) [1, 8]: 0.1112
logFC SMAD2(S245) [1, 8]: 0.1323
logFC TAK1(S412) [1, 8]: 0.1801
logFC eIF2a (S51) [1, 8]: 0.3444
logFC AKT(S473) [1, 9]: -0.06086
logFC ATM(S1981) [1, 9]: -0.05046
logFC BAD(S112) [1, 9]: 0.1826
logFC CHK1 (S296) [1, 9]: 0.4872
logFC Casp3(D175) [1, 9]: 0.08018
logFC Casp7(D198) [1, 9]: 0.3435
logFC Erk1/2(T202) [1, 9]: 0.205
logFC IkBa (S32) [1, 9]: 0.7772
logFC JNK(T183) [1, 9]: 0.2969
logFC NFKB(S536) [1, 9]: 0.3462
logFC P27(T198) [1, 9]: 0.1557
logFC P38(T180/Y182) [1, 9]: 0.3491
logFC P53(S15) [1, 9]: 0.132
logFC SMAD2(S245) [1, 9]: -0.1242
logFC TAK1(S412) [1, 9]: 0.1335
logFC eIF2a (S51) [1, 9]: 0.02722
logFC hsp27(S82) [1, 9]: 0.1414
levels of IκBa (S32), CHK1 (S296), NF-κB (S536), p38 (T180/Y182), Casp7 (D198), JNK(T183) vs vehicle ([1]; VK 150 µg/kg, MCAO/R mice): clearly decreased levels
NFκB(S536) AveExp. Group2 ([1]; VK group headed 150 mg/kg): 11
IκBa (S32) AveExp. Group2 ([1]; VK group headed 150 mg/kg (text 150 µg/kg)): 10.95
NFκB(S536) AveExp. Group1 ([1]; VK group headed 300mg/kg): 10.93
IκBa (S32) AveExp. Group1 ([1]; VK group headed 300mg/kg (text 300 µg/kg)): 11.05
IκBa (S32) logFC ([1]; Vehicle (Group4) vs VK headed 150 mg/kg, Regulation up): 0.7772
IκBa (S32) logFC ([1]; Vehicle (Group4) vs VK headed 300mg/kg, Regulation up): 0.671
Casp7(D198) logFC [1, 10]: 0.3435
JNK(T183) logFC [1, 10]: 0.2969
NFκB(S536) logFC [1, 10]: 0.3462
ATM(S1981) logFC [1, 11]: 0.3928
BAD(S112) logFC [1, 11]: 0.3454
CHK1 (S296) logFC [1, 11]: 0.6052
Casp3(D175) logFC [1, 11]: 0.3417
Casp7(D198) logFC [1, 11]: 0.6994
Erk1/2(T202) logFC [1, 11]: 0.4686
JNK(T183) logFC [1, 11]: 0.4121
NFκB(S536) logFC [1, 11]: 0.4222
P38(T180/Y182) logFC [1, 11]: 0.4307
eIF2a (S51) logFC [1, 11]: 0.3444
hsp27(S82) logFC [1, 11]: 0.386
ADP-induced platelet aggregation vs control group [2]: decreased
apoptosis of HT22 cells after OGD/R [3]: restrained apoptosis
concentrations at which VK inhibited growth of BV2 cells [4]: 73.5 to 735 µM
grip test (Fig.2g) ([5]; VK 150 µg/kg i.p.): 103 and 99.5 and 136 and 78 and 61.1 and 99 and 115.7
grip test (Fig.2g) ([5]; VK 300 µg/kg i.p.): 116.6 and 26 and 19.5 and 56.2 and 63.2 and 77 and 80.9
sensorimotor function, grip test ([5]; VK 150 and 300 µg/kg i.p.): improved functional performance and ameliorated the sensorimotor asymmetry
